{"source": "patent US20260198495A1", "about": "“BINARY INSECTICIDE COMPOSITION AND USE THEREOF” (SHENYANG SINOCHEM AGROCHEMICALS R & D CO., LTD., priority 2022, published 2026)", "type_in_all_cases": "in vivo", "key": {"[1]": {"tested_on": "3rd-instar larvae of Chilo suppressalis (Walker)", "experiment": "Joint toxicity of I-72 + organophosphorus insecticides, rice seedling dipping, Example 15, Table 15", "details": "3rd-instar larvae, rice seedling dipping, 48 h, A = compound I-72, B = diazinon, read-out: LC50", "procedure,_shortened": "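Rice seedling sections dipped 10 s in acetone/0.1% Tween 80 dilutions of single agents or mixtures, air-dried and fed to lab-reared 3rd-instar larvae (10 per dish, 3 replicates). Mortality scored after 48 h, Abbott-corrected; LC50 with 95% limits by regression, and co-toxicity coefficients by the Sun Y-P method.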"}, "[2]": {"tested_on": "3-instar larvae of Ostrinia furnacnlis Guenee", "experiment": "Joint toxicity of I-72 + flubendiamide, Example 61, Table 61", "details": "A = compound I-72, B = flubendiamide, corn stem dipping, 72 hours, read-out: LC50", "method": "Test target: 3-instar larvae of Ostrinia furnacnlis Guenee.\n(§1) Preparation of the pesticide solution: according to different test requirements, the test samples were accurately weighed respectively with an electronic analytical balance. The technical pesticides were dissolved in acetone, and then diluted with 0.1% Tween 80 water into a series of pesticide solutions with a certain concentration gradient according to the experimental design dosage.\n(§2) Experimental method: first, tender corn stems were selected and dipped in the prepared pesticide solution for 10 s in the order from low dosage to high dosage according to the experimental design. After natural air-drying in the shade, they were placed in a 9-cm-diameter Petri dish with filter paper, and uniform and healthy test insects were introduced, with 10 insects for each treatment and 3 replicates for each treatment. In addition, a blank control was set up.\nThe treated test materials were placed in an observation room, and the temperature, humidity and illumination of the observation room could be adjusted as needed. The number of dead and live insects was investigated 72 hours later. […] Then, the co-toxicity coefficient of each ratio was calculated using the Sun Y-P method to evaluate the mixing effect (the same as in Example 1)."}, "[3]": {"tested_on": "Sitobion miscanthi (Fabricius)", "experiment": "whole plant or invertebrate", "details": "Sitobion miscanthi, in Triticum aestivum; single pesticide, 10 mg/L; 48 hours; read-out: Measured mortality rate", "method": "Test target: Sitobion miscanthi (Fabricius).\nas §1\nExperimental method: first, wheat seedlings with uniform and consistent Sitobion miscanthi (Fabricius) were selected, with about 30-40 insects on each pot of wheat. Then, they were evenly sprayed with the pesticide solution in the order from low dosage to high dosage according to the experimental design, with 2.5 mL for each pot and 3 replicates for each treatment. In addition, a blank control CK was set up.\nThe treated test materials were placed in an observation room, and the temperature, humidity and illumination of the observation room could be adjusted as needed. The number of dead and alive insects was investigated 48 hours later, and the corrected mortality rate was calculated using the Abbott's formula.\nThe synergism of the mixture was evaluated by the Bliss method. According to the concept of independent joint action he proposed, Bliss believes that the theoretical mortality rate P when insecticides are used in combination can be calculated by the following formula: […]\nPm is the measured mortality rate (%) of the target when the first active ingredient is at a concentration of m; and Pn is the measured mortality rate (%) of the target when the second active ingredient is used at a concentration of n.\nIf the actual mortality rate of the target after the two active ingredients are mixed at a certain concentration is greater than theoretical mortality rate P, it is determined that the two active ingredients have a synergistic effect when used in combination at the set concentration, and otherwise, they have an antagonistic effect."}, "[4]": {"tested_on": "2nd-instar larvae of Chilo suppressalis (Walker)", "experiment": "whole plant or invertebrate", "details": "Chilo suppressalis; resistant 2nd-instar larvae, rice stalk spraying, 72 h; A = compound I-72, B = spinetoram; read-out: LC50", "method": "In addition, a blank control was set up. The number of dead and live insects was investigated 72 hours later."}, "[5]": {"tested_on": "adult Phyllotreta vittuta Fabr.", "experiment": "Joint toxicity of I-72 + acetamiprid, Example 65, Table 65", "details": "A = compound I-72, B = acetamiprid; potted cabbage seedling spraying; 72 hours; read-out: LC50", "method": "Test target: adult Phyllotreta vittuta Fabr.\nas §1\nExperimental method: first, uniform and consistent potted cabbage seedlings were selected. Then, uniform spraying was performed with the pesticide solution in the order from low dosage to high dosage according to the experimental design. After air-drying in the shade, adult flea beetles were transferred onto the treated cabbage seedlings, and then glass covers were put on them, with about 30-40 adult flea beetles on each seedling and 3 replicates for each treatment. In addition, a blank control was set up.\n(§3) The treated test materials were placed in an observation room, and the temperature, humidity and illumination of the observation room could be adjusted as needed. The number of dead and live insects was investigated 72 hours later."}, "[6]": {"tested_on": "adult Bemisia tabaci (Gennadius)", "experiment": "Joint toxicity of I-72 + pyraclostrobin, cotton seedling spraying, Example 83, Table 83", "details": "A = compound I-72, B = pyraclostrobin, cotton seedling spraying, 72 hours, read-out: LC50", "method": "as §1\nThe corrected mortality rate was calculated using the Abbott's formula, and statistical analysis was performed with the DPS data processing software to obtain the toxicity regression equation and LC50 value of each single test pesticide and each mixture of different ratios."}, "[7]": {"tested_on": "3rd-instar larvae of Yponomeuta evonymallus (Linnaeus)", "experiment": "Joint toxicity of I-72 + thiamethoxam, Example 66, Table 66", "details": "A = compound I-72, B = thiamethoxam; leaf dipping; 72 hours", "method": "Test target: 3rd-instar larvae of Yponomeuta evonymallus (Linnaeus).\nas §1\nas §2, with “Hylotelephium spectabile leaves” for “tender corn stems”\nas §3"}}, "data": [{"compound": "CN(C(=O)c1ccc2c(c1)OC(F)(F)O2)c1cccc(C(=O)Nc2c(Br)cc(C(F)(C(F)(F)F)C(F)(F)F)cc2OC(F)F)c1F", "note": "[Compound I-72]", "values": [{"measurement": "LC50", "setting": "[1]", "result": 1.76, "unit": "mg/L"}, {"measurement": "LC50", "setting": "[2]", "result": 0.804, "unit": "mg/L"}, {"measurement": "mortality at 10 µg/mL", "setting": "[3]", "result": 64.2, "unit": "%"}, {"measurement": "LC50", "setting": "[4]", "result": 0.811, "unit": "mg/L"}, {"measurement": "LC50", "setting": "[5]", "result": 1.14, "unit": "mg/L"}, {"measurement": "LC50", "setting": "[6]", "result": 4.02, "unit": "mg/L"}, {"measurement": "LC50", "setting": "[7]", "result": 4.5752, "unit": "mg/L"}]}]}
